According to ChEMBL document CHEMBL1201862, “PubChem BioAssay data set” (2004):
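Cells were grown in 96-well plates and exposed to each compound for 48 hours at five concentrations; endpoints were interpolated linearly between bracketing concentrations, or set to the highest concentration if not reached. GI50 is the concentration that inhibits growth by half.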 Active and inactive are the calls of the source. No stated cut-off is given here; in the data, active = GI50 up to about 1.1 µM and inactive = higher.

Experiments:
Test in all cases: inhibition of tumour cell growth, NCI panel, 48 h
[1] = test system: NCI-H460
[2] = test system: OVCAR-8
[3] = test system: EKVX
[4] = test system: KM-20L2
[5] = test system: UACC-257
[6] = test system: RPMI-8226
[7] = test system: SK-OV-3
[8] = test system: CCRF-CEM
[9] = test system: NCI-H226
[10] = test system: SF-539
[11] = test system: M19-MEL
[12] = test system: NCI-H522
[13] = test system: IGROV-1
[14] = test system: NCI-H23
[15] = test system: OVCAR-5
[16] = test system: SK-MEL-28
[17] = test system: LOX IMVI
[18] = test system: HOP-62
[19] = test system: A549
[20] = test system: Malme-3M

Compound	GI50 [1]	GI50 [2]	GI50 [3]	GI50 [4]	GI50 [5]	GI50 [6]	GI50 [7]	GI50 [8]	GI50 [9]	GI50 [10]	GI50 [11]	GI50 [12]	GI50 [13]	GI50 [14]	GI50 [15]	GI50 [16]	GI50 [17]	GI50 [18]	GI50 [19]	GI50 [20]
O=C(CC1OC(O)C(Cl)=C1Cl)c1cccnc1 (configuration not stated)	> 73.5 µM (inactive)	> 100 µM (inactive)	> 100 µM (inactive)	> 100 µM (inactive)	> 100 µM (inactive)	> 34.7 µM (inactive)	> 100 µM (inactive)	> 100 µM (inactive)	> 100 µM (inactive)	0.359 µM (active)	> 62.4 µM (inactive)	> 100 µM (inactive)	> 100 µM (inactive)	> 100 µM (inactive)	> 100 µM (inactive)	> 42.7 µM (inactive)	> 100 µM (inactive)	> 50.2 µM (inactive)	> 100 µM (inactive)	> 100 µM (inactive)
CC(=O)NC1C(O)CC(OCCCSCCN)(C(=O)O)OC1C(O)C(O)CO (configuration not stated)	> 100 µM (inactive)	> 100 µM (inactive)	> 100 µM (inactive)	> 100 µM (inactive)	> 100 µM (inactive)	> 100 µM (inactive)		> 100 µM (inactive)	> 100 µM (inactive)	> 100 µM (inactive)			> 100 µM (inactive)	> 100 µM (inactive)	> 100 µM (inactive)	> 100 µM (inactive)	> 100 µM (inactive)		> 100 µM (inactive)	> 100 µM (inactive)
CCOC(=O)C(C#N)(Cc1c[nH]c2ccccc12)NC(C)=O (configuration not stated)	> 100 µM (inactive)	> 100 µM (inactive)	> 100 µM (inactive)	> 100 µM (inactive)	> 100 µM (inactive)	> 100 µM (inactive)	> 100 µM (inactive)	> 100 µM (inactive)	> 100 µM (inactive)		> 100 µM (inactive)	> 100 µM (inactive)	> 100 µM (inactive)	> 100 µM (inactive)	> 100 µM (inactive)	> 100 µM (inactive)	> 100 µM (inactive)	> 100 µM (inactive)		> 100 µM (inactive)
COc1ccc(CC(N)=O)cc1OC	> 1250 µM (inactive)	198 µM (inactive)	> 1250 µM (inactive)	> 1140 µM (inactive)	703 µM (inactive)	> 1250 µM (inactive)	> 1250 µM (inactive)	> 1250 µM (inactive)	> 1250 µM (inactive)	> 1250 µM (inactive)	> 1250 µM (inactive)	> 1250 µM (inactive)	> 1250 µM (inactive)	> 1250 µM (inactive)	> 853 µM (inactive)	> 1250 µM (inactive)	> 1250 µM (inactive)	> 818 µM (inactive)	> 1250 µM (inactive)	> 1250 µM (inactive)
O=C1C2CN(Cc3ccccc3)CC1CN(CC1CC1)C2	> 100 µM (inactive)	> 100 µM (inactive)	> 100 µM (inactive)	> 100 µM (inactive)	> 100 µM (inactive)	> 100 µM (inactive)	> 100 µM (inactive)	> 100 µM (inactive)	> 100 µM (inactive)	> 100 µM (inactive)	> 100 µM (inactive)	> 100 µM (inactive)	> 100 µM (inactive)	> 100 µM (inactive)	> 100 µM (inactive)	> 100 µM (inactive)	> 100 µM (inactive)	> 100 µM (inactive)	> 100 µM (inactive)	> 100 µM (inactive)
COc1cc([C@@H]2c3cc4c(cc3[C@@H](OC3OC5COC(C)OC5C(O)C3O)[C@H]3COC(=O)[C@H]23)OCO4)cc(OC)c1O (some centres not stated)	0.533 µM (active)	11.3 µM (inactive)	27.7 µM (inactive)	70.8 µM (inactive)	37.2 µM (inactive)		17.2 µM (inactive)	1.4 µM (inactive)	3.44 µM (inactive)	3.27 µM (inactive)	34.7 µM (inactive)	6.03 µM (inactive)	31.4 µM (inactive)	6.01 µM (inactive)	25.2 µM (inactive)	22.1 µM (inactive)	2.74 µM (inactive)	1.97 µM (inactive)	3.61 µM (inactive)	9.44 µM (inactive)
COC(=O)C(Cc1cc(OC)c(OC)c(OC)c1)(NC(=O)c1ccccc1)P(=O)(OC)OC (configuration not stated)	> 100 µM (inactive)	> 100 µM (inactive)	> 100 µM (inactive)	> 100 µM (inactive)	> 100 µM (inactive)	> 100 µM (inactive)	> 100 µM (inactive)	> 100 µM (inactive)	> 100 µM (inactive)	> 100 µM (inactive)	> 100 µM (inactive)	> 100 µM (inactive)	> 100 µM (inactive)	> 100 µM (inactive)	> 100 µM (inactive)	> 100 µM (inactive)	> 100 µM (inactive)	> 100 µM (inactive)	> 100 µM (inactive)	
